Assay results taken from a melting point compilation (Tetko et al.).

Row | SMILES | melting point [°C]
1 | Cc1nc2scc(-c3ccccc3)c2c(=O)n1NC(=O)c1cccc(C(F)(F)F)c1 | 134 to 138
2 | C=C[Si]12OCCN(CCO1)CCO2 | 163 to 165
3 | CCCCc1ccc(NC(=O)c2ccc(OC)cc2)cc1 | 146 to 148
4 | CCOC(=O)c1c(-c2ccc(Br)cc2)csc1N | 120 to 122
5 | O=C(CNc1cccc(NCC(=O)c2ccccc2)c1)c1ccccc1 | 164
6 | CCCCCCCCCCCC(N)=O | 110
7 | Sc1cc(Cl)cc(Cl)c1 | 59 to 61
8 | CC(CCC(=O)O)C1CCC2C3CCC4CCCCC4(C)C3CC(O)C12C (centres undefined) | 186 to 188
9 | O=C(O)c1cnc2n(c1=O)CCS2 | 237 to 238
10 | NC(=O)c1ccc(Cl)c([N+](=O)[O-])c1 | 152
11 | COC(=O)[C@H](CSCc1ccccc1)NC(C)=O | 67 to 73
12 | CC1(c2ccccc2)CC(C(=NO)c2cc3cc(Br)ccc3o2)C1 (centres undefined) | 134 to 135
13 | Cc1cc(Br)c(Br)cc1C | 86
14 | O=Cc1cc(-c2ccco2)on1 | 60 to 61
15 | CCOC(=O)c1sc2sc(C(=O)OCC)c(C)c2c1C | 187
16 | CCN(CC)C(=O)C1CN2CCc3cc(OC)c(OC)cc3C2CC1OC(C)=O (centres undefined) | 131
17 | Fc1ccc(C2CCNCC2COc2ccc3c(c2)OCO3)cc1 (centres undefined) | 130
18 | N#CCS(=O)(=O)c1ccc(Cl)cc1 | 171
19 | O=C(c1ccncc1)c1ccc(Cl)cc1 | 108
20 | CC(C)(C)OC(=O)N1CC(C#N)C1 | 70
21 | CCSc1ncccc1C(=O)NC(CCSC)C(=O)O (centres undefined) | 121 to 122
22 | CSC(SC)=C(C#N)C(=O)NCc1ccccc1 | 81
23 | COc1ccc(C(=O)C=Cc2ccc(-c3ccccc3OC)o2)cc1OC | 144 to 145
24 | CC(=O)N1C(=O)c2ccccc2C1=O | 137
25 | COc1ccc([N+](=O)[O-])c(Cl)n1 | 78 to 80

Row | SMILES | melting point [°C]
26 | COc1ccc2c(c1)OC(c1ccccc1)CC2=O (centres undefined) | 88
27 | CCC(=O)OC1(C(=O)CCl)C(C)CC2C3CCC4=CC(=O)C=CC4(C)C3(F)C(O)CC21C (centres undefined) | 196
28 | O=C(O)CCc1cccc(Br)c1 | 76 to 78
29 | CCOC(=O)C1=C(C)NC(C)=C(C(=O)OCC)C1c1cccc(OC)c1O | 207
30 | CC(C)C(NC(=O)C(C)(C)Br)C(C)C | 80 to 82
31 | CC(C)(C)c1cc(C(F)(F)F)nc(N)n1 | 48 to 50
32 | CCOC(C)=C(C#N)C#N | 89 to 93
33 | O=C(Cl)c1cc2cc([N+](=O)[O-])ccc2s1 | 157 to 158
34 | O=S(=O)(Cl)c1ccc(Oc2ccccc2)nc1 | 114 to 116
35 | Clc1ccc2ncccc2c1 | 43.8
36 | Nc1ccc(Nc2ccccc2)c2c1C(=O)c1ccccc1C2=O | 192
37 | COc1ccc(C(=O)Nc2ccc(-c3ccc4nn(-c5ccccc5)nc4c3)cc2)cc1 | 240 to 243
38 | CC(C)(C)OC(=O)N1CCN(C(=O)OCC2c3ccccc3-c3ccccc32)C(C(=O)O)C1 (centres undefined) | 163 to 166
39 | CCOC(=O)/C=C/c1ccc2ccc(=O)[nH]c2c1 | 209 to 210
40 | Cc1ccccc1N=O | 73.5
41 | O=C(Nc1ccc([N+](=O)[O-])cc1Br)C1(F)C(F)(F)C(F)(F)C(F)(F)C(F)(F)C1(F)F | 102
42 | C1CCC2CCCC2C1 (centres undefined) | -53
43 | Cc1nc2ccc(N)cc2s1 | 122 to 124
44 | CCOc1c(N2CCOCC2)cnn(C)c1=O | 90
45 | O=C1OC(c2ccccc2)Cc2ccccc21 (centres undefined) | 88 to 90
46 | CCOC(=O)C(OC(=O)c1ccccc1)c1cc(C(OC(=O)c2ccccc2)C(=O)OCC)c([N+](=O)[O-])cc1[N+](=O)[O-] (centres undefined) | 133
47 | Cc1ccc(C(=O)O)cc1Cl | 208 to 209
48 | COc1ccc(C(c2ccc(OC)cc2)C(Cl)(Cl)Cl)cc1 | 87
49 | COC(=O)CCc1cc(CCC(=O)OC)c([N+](=O)[O-])cc1[N+](=O)[O-] | 71
50 | O=Cc1cc([N+](=O)[O-])ccc1F | 58

Row | SMILES | melting point [°C]
51 | CCCCCC(=O)Nc1ccc(Cl)c(Cl)c1 | 106
52 | CCOC(=O)C1=NC2Sc3sc(C(=O)OCC)cc3C(c3ccccc3)C2=C1N (centres undefined) | 133
53 | CC(/C=C(\C)c1ccc(-c2ccccc2)cc1)=NNS(=O)(=O)c1ccc(C)cc1 | 132 to 134
54 | OCc1ccnc(Cl)c1 | 65.5 to 67.5
55 | CN1C(=O)C(O)N=C(c2ccccc2Cl)c2cc(Cl)ccc21 (centres undefined) | 206
56 | Brc1ccc(Oc2ccc(Br)c(Br)c2)cc1 | 48 to 49
57 | Cc1noc(C)c1CO | 76 to 77
58 | CCOC(=O)c1c(SC)nn(C(N)=O)c1N | 155
59 | COc1ccc(C=O)cc1O | 114
60 | O=C(O)c1cccc(I)c1C(=O)O | 178 to 182
61 | Fc1ccc(C(Br)Br)c(C(Br)Br)c1 | 92 to 97
62 | Cc1ccc(C(C)(C)C)cc1 | -54
63 | CCC(C)c1cc([N+](=O)[O-])cc([N+](=O)[O-])c1OC(=O)C=C(C)C (centres undefined) | 70
64 | CC(NC(=O)CCCCNC(=O)C12CC3CC(CC(C3)C1)C2)[P+]([O-])(Oc1ccccc1)Oc1ccccc1 (centres undefined) | 150
65 | CCCCc1ccc(/N=N/c2ccc(OC(=O)CC)cc2)cc1 | 84 to 87
66 | O=C(CBr)Oc1ccc([N+](=O)[O-])cc1 | 86
67 | CSc1ccc([N+](=O)[O-])cc1 | 65 to 68
68 | O=Cc1cccc(Oc2ccccn2)c1 | 115 to 116
69 | CCN(CCO)S(=O)(=O)C(F)(F)C(F)(F)C(F)(F)C(F)(F)C(F)(F)C(F)(F)C(F)(F)C(F)(F)F | 55 to 60
70 | NNC(N)=S | 183
71 | CNCc1ccc(N2CCOCC2)s1 | 38 to 39
72 | COC(=O)C=CC(C)=CC=CC(C)=CC=CC=C(C)C=CC=C(C)C=CC(=O)O | 198
73 | O=C(OCc1ccccc1)[C@@H](O)[C@H](O)C(=O)OCc1ccccc1 | 63 to 65
74 | O=C(NC(=O)C(F)(F)F)C(F)(F)F | 84
75 | O=C1CCCN1c1ccc(Cl)cc1 | 95 to 98

Row | SMILES | melting point [°C]
76 | Nc1ccc(Br)cc1N | 62 to 64
77 | NNC(=O)c1ccc(C(F)(F)F)cc1 | 121
78 | N#CCC(=O)c1cccc(Cl)c1 | 81
79 | Nc1ccnc(Cl)c1 | 93
80 | Cc1ccccc1C(=O)Cc1ccccc1C(=O)OC(C)(C)C | 30 to 36
81 | OCc1ccc2nsnc2c1 | 58 to 63
82 | CC(=O)OCOC(=O)C1N2C(=O)C(NC(=O)Cc3ccccc3)C2SC1(C)C (centres undefined) | 107
83 | O=C(C(=S)Nc1ccccc1Cl)c1ccccc1 | 119
84 | CCOC(=O)c1c(C)oc(N)c1C(=O)OCC | 84 to 85
85 | C[Si](C)(C)N=C=S | -32.8
86 | Nc1c(Br)cc(Br)c(Cl)c1Cl | 98
87 | O=C1OC(c2ccccc2)=NC1=Cc1ccc([N+](=O)[O-])cc1 | 214 to 215
88 | OC1CC(c2ccccc2)NC2(CCCC2)C1 (centres undefined) | 240 to 243
89 | NS(=O)(=O)c1cc(C(=O)O)c(Cl)cc1Cl | 230 to 234
90 | CC(=O)C1CCC2C3CCC4CC(N)CCC4(C)C3CCC12C (centres undefined) | 126
91 | C[C@H](O)C(=O)O | 53
92 | O=P(OC(Cl)CCCl)(OC(Cl)CCCl)OC(Cl)CCCl (centres undefined) | 26.7
93 | CC1=NN(c2ccccc2)C(=O)C1C(=O)C(F)(F)F (centres undefined) | 143
94 | Cc1ccc(CC(=O)Nc2ccc(C)cc2)cc1 | 163
95 | CCCCCCCCCCCCCCCCCC1CCCCC1 | 38
96 | Brc1ccccc1COc1ccccc1 | 41 to 42
97 | Cn1c(=O)c(C2=NNC(=O)C2=NNc2cc(Cl)ccc2Cl)c(O)c2ccccc21 | 284
98 | NS(=O)(=O)c1ccc(Cl)s1 | 117
99 | O=C1OC(=O)C2CC(c3ccccc3)CCC12 (centres undefined) | 105 to 106
100 | O=C(O)c1cc(S(=O)(=O)F)c2ccccc2c1O | 300

Row | SMILES | melting point [°C]
101 | O=C(O)c1cc([N+](=O)[O-])cc(S(=O)(=O)Nc2ccccc2)c1 | 177
102 | O=C(O)CC(CC(=O)O)C(=O)O | 166
103 | CCOC(=O)C1=C(C)NC(C)=C(C(=O)OCC)C1c1ccc2c(c1)OCO2 | 135
104 | CNc1cc(=O)oc2ccccc12 | 198
105 | O=C1OCCOC(=O)c2ccccc2C(=O)OCCOC(=O)c2ccccc21 | 192
106 | O=Cc1cc2ccccc2n1S(=O)(=O)c1ccccc1 | 111 to 112
107 | CC(=O)OCC1OCC(OC(C)=O)(C2C=Nc3c2ncn(C2(OC(C)=O)COC(COC(C)=O)C2OC(C)=O)c3=O)C1OC(C)=O (centres undefined) | 76
108 | O=C(O)c1cc(Cl)c(Cl)cc1Cl | 166
109 | Cc1ccc([N+](=O)[O-])cc1I | 61
110 | O=Cc1cccc(-c2ncccn2)c1 | 98 to 100
111 | C[C@H](Cl)C(=O)O | 4
112 | NC(=S)C(c1ccccc1)c1ccccc1 | 143 to 146
113 | CC(=O)CS(=O)(=O)c1ccc(Cl)cc1 | 89 to 91
114 | Cn1c2ccccc2n2c(=O)c3ccncc3c(C#N)c12 | 296
115 | CC(=O)C1(O)C(O)CC2C3CCC4=CC(=O)CCC4(C)C3CCC21C (centres undefined) | 225
116 | CCNc1cc(=O)oc2ccccc12 | 150
117 | Cl/C(=C\c1ccccc1)c1cccc2ccccc12 | 117
118 | COC(=O)c1ccc(N)c(C)c1 | 116 to 117
119 | O=c1oc(=O)n(Cc2ccccc2)c2ccccc12 | 136 to 139
120 | O=C1NCCN1 | 131
121 | OCc1cc(Cl)ccc1O | 90 to 91
122 | N#Cc1ccccc1OC1CCOCC1 | 51 to 55
123 | CC(=O)c1ccc(N2CCCC2)cc1 | 129
124 | CCOC(=O)c1cc(C)n(-c2cc(C)[nH]n2)n1 | 120 to 122
